The record followed here is ChEMBL document CHEMBL1201862, “PubChem BioAssay data set” (2004).

Values joined by “and” are separate entries in the source; they are usually repeats but may differ in a detail not shown here. Equal values may be shown once.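 Five compound concentrations were applied to cells in 96-well plates for 48 hours; endpoints were derived by simple linear interpolation of the resulting dose-response curve. GI50: concentration for 50% inhibition of growth.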 Active and inactive are the calls of the source. Cut-off read from the data, not from the text of the source: active = GI50 up to about 1.1 µM and inactive = higher.

Test systems include HCC 2998; SK-MEL-28; SN12C; HOP-62; UO-31; HL-60; NCI/ADR-RES; MCF7; A549; IGROV-1; Malme-3M; SR; SK-MEL-2; UACC-62; COLO 205; HCT-15; SW-620; DU-145; CCRF-CEM; A498.
Experiment in all cases: inhibition of tumour cell growth, NCI panel, 48 h

As for `COc1cc([C@H]2CC(=O)C[C@@H](c3cc(OC)c(OC)c(OC)c3)C23C(=O)c2ccccc2C3=O)cc(OC)c1OC`, the GI50 in the assay on HCC 2998, in the assay on SK-MEL-28, in the assay on SN12C, with HOP-62, in the assay with UO-31 and in the assay on HL-60 was > 100 µM (inactive) each time. The GI50 with NCI/ADR-RES, with MCF7, with A549, in the assay on IGROV-1, with Malme-3M and in the assay on SR was > 100 µM (inactive) in each case. In addition, the GI50 is > 100 µM (inactive) with SK-MEL-2; > 100 µM (inactive) in the assay with UACC-62; > 100 µM (inactive) in the assay with COLO 205; over 100 µM in the assay with HCT-15; > 100 µM (inactive) in the assay on SW-620; > 100 µM (inactive) with DU-145. In addition, in the assay with CCRF-CEM, the GI50 was > 100 µM (inactive).
As for `N#CC1Cc2cc3c(cc21)OCO3` (stereo not given), the GI50 with HCC 2998, in the assay on SK-MEL-28, with SN12C, in the assay on HOP-62, with UO-31 and in the assay with NCI/ADR-RES was > 100 µM (inactive) throughout. Besides, the GI50 with MCF7, in the assay with A549, in the assay with IGROV-1, with Malme-3M, with A498 and in the assay with SR was > 100 µM (inactive) throughout. Moreover, the GI50 in the assay with SK-MEL-2 was > 100 µM (inactive); with UACC-62, > 100 µM (inactive); in the assay on COLO 205, > 100 µM (inactive); in the assay with HCT-15 it was over 100 µM; in the assay on SW-620, > 100 µM (inactive); in the assay with DU-145, > 100 µM (inactive). Moreover, the GI50 in the assay on CCRF-CEM is > 100 µM (inactive).
Consider `COc1ccc(N[S+]([O-])c2ccccc2OC)cc1` (stereo not given), for which the GI50 is > 10 µM (inactive) with HCC 2998; 54.8 µM (inactive) in the assay with SK-MEL-28; > 100 µM (inactive) with SN12C; 37.2 µM (inactive) in the assay on HOP-62; 12.3 µM (inactive) in the assay on UO-31; 17.7 µM (inactive) in the assay with HL-60. Moreover, the GI50 in the assay on NCI/ADR-RES was 15.9 µM (inactive); in the assay on MCF7, 20.2 µM (inactive); in the assay with A549 it was 16.2 µM (inactive); in the assay with IGROV-1, 7.87 µM (inactive); with Malme-3M, 19.6 µM (inactive); with SR it was 11.9 µM (inactive). The GI50 was 11.8 µM (inactive) with SK-MEL-2; 2.07 µM (inactive) in the assay with UACC-62; 24.4 µM (inactive) in the assay on COLO 205; 5.16 µM in the assay on HCT-15; 22.7 µM (inactive) in the assay with SW-620; 27.5 µM (inactive) with DU-145. The GI50 in the assay on CCRF-CEM is 26.1 µM (inactive).
As for `CC1(C)OC(=C(C#N)C#N)C(C#N)=C1/C=C/c1ccncc1`, the GI50 was 4.9 µM (inactive) in the assay on HCC 2998; 2.39 µM (inactive) with SK-MEL-28; 2.39 µM (inactive) with SN12C; 1.66 µM (inactive) in the assay on HOP-62; 3.24 µM (inactive) in the assay on UO-31; 2.03 µM (inactive) with NCI/ADR-RES. Also, the GI50 is 2.04 µM (inactive) in the assay with MCF7; 11.4 µM (inactive) in the assay on A549; 2.17 µM (inactive) in the assay on IGROV-1; 2.61 µM (inactive) with Malme-3M; 7.69 µM (inactive) in the assay with A498; 2.41 µM (inactive) with SR. Besides, the GI50 in the assay with SK-MEL-2 is 2.66 µM (inactive); with UACC-62, 1.95 µM (inactive); with COLO 205, 1.88 µM (inactive); with HCT-15 it was 2.03 µM; in the assay with SW-620 it was 2.27 µM (inactive); in the assay on DU-145, 2.53 µM (inactive). In addition, the GI50 in the assay on CCRF-CEM is 0.851 µM (active).
In the case of `CCOP(=O)(OCC)C(C)(CC)NC(=O)C(C(F)(F)F)C(F)(F)F` (stereo not given), the GI50 in the assay on HCC 2998 is > 100 µM (inactive); with SK-MEL-28 it was > 100 µM (inactive); in the assay on SN12C it was > 100 µM (inactive); with HOP-62 it was > 100 µM (inactive); with UO-31, > 100 µM (inactive) and 97.3 µM (inactive); in the assay with NCI/ADR-RES, > 100 µM (inactive). Besides, the GI50 is > 31.6 µM (inactive) and 29.7 µM (inactive) in the assay on MCF7; > 100 µM (inactive) with A549; > 100 µM (inactive) in the assay on IGROV-1; > 100 µM (inactive) with Malme-3M; > 100 µM (inactive) in the assay on A498; 63.4 µM (inactive) and 33.8 µM (inactive) with SR. Further, the GI50 was > 100 µM (inactive) with SK-MEL-2; > 100 µM (inactive) with COLO 205; over 100 µM in the assay with HCT-15; > 100 µM (inactive) and 92 µM (inactive) with SW-620; > 100 µM (inactive) with DU-145; 22 µM (inactive) and 21.9 µM (inactive) in the assay on CCRF-CEM.
`O=c1[nH]nc(Cc2ccccc2)n1/N=C/c1c(O)ccc2ccccc12`: the GI50 in the assay on HCC 2998 is 33.4 µM (inactive); with SN12C, 41.1 µM (inactive); in the assay on UO-31, 36.1 µM (inactive); in the assay on NCI/ADR-RES it was 20.1 µM (inactive); with MCF7, 37.9 µM (inactive); in the assay on A549, 32 µM (inactive). Further, the GI50 in the assay on IGROV-1 was 21.2 µM (inactive); with Malme-3M, 20.9 µM (inactive); in the assay with A498, 18.5 µM (inactive); with SR, 21.3 µM (inactive); in the assay with SK-MEL-2 it was 38.1 µM (inactive); in the assay with UACC-62 it was 29.2 µM (inactive). For the same compound, the GI50 with COLO 205 is 47.4 µM (inactive); in the assay with HCT-15 it was 51.6 µM; with SW-620 it was 43.5 µM (inactive); with DU-145, 57 µM (inactive); with CCRF-CEM, 43.6 µM (inactive).
Regarding `CCC(=O)N1NC(=O)C(CC)(CC)C1=O`, the GI50 in the assay on HCC 2998, in the assay on SK-MEL-28, in the assay on SN12C, in the assay on HOP-62, in the assay on UO-31 and in the assay on HL-60 was > 100 µM (inactive) in each case. Besides, the GI50 in the assay on NCI/ADR-RES is > 100 µM (inactive); with MCF7, > 100 µM (inactive); in the assay with A549 it was > 100 µM (inactive); in the assay on IGROV-1, > 100 µM (inactive); with Malme-3M, 0.276 µM (active); with SR, > 100 µM (inactive). The GI50 in the assay with SK-MEL-2 is > 100 µM (inactive); with UACC-62 it was > 100 µM (inactive); in the assay on COLO 205, > 100 µM (inactive); in the assay on HCT-15, over 100 µM; with SW-620, > 100 µM (inactive); with DU-145 it was > 100 µM (inactive). In the assay with CCRF-CEM, the GI50 was > 100 µM (inactive).
As for `[N-]=[N+]=C(C(=O)CN1CCCC1=O)S(=O)(=O)c1ccccc1`, the GI50 in the assay on HCC 2998, with SK-MEL-28, with SN12C, with HOP-62, in the assay with UO-31 and with HL-60 was > 100 µM (inactive) each time. Besides, the GI50 in the assay on NCI/ADR-RES, in the assay on MCF7, in the assay with A549, in the assay on IGROV-1, in the assay with Malme-3M and with SR was > 100 µM (inactive) throughout. Besides, the GI50 in the assay on SK-MEL-2 is > 100 µM (inactive); in the assay on UACC-62 it was > 100 µM (inactive); in the assay with COLO 205, > 100 µM (inactive); in the assay with HCT-15 it was over 100 µM; in the assay on SW-620 it was > 100 µM (inactive); in the assay on DU-145, > 100 µM (inactive). Moreover, the GI50 in the assay with CCRF-CEM was > 100 µM (inactive).
For `N#Cc1cc2c(cc1Cl)Sc1nccn1S2(=O)=O`, the GI50 in the assay on SK-MEL-28 was 2.32 µM (inactive); in the assay with SN12C, 7.57 µM (inactive); in the assay on HOP-62, 3.38 µM (inactive); with UO-31 it was 5.52 µM (inactive); in the assay on HL-60 it was 3.08 µM (inactive); in the assay on NCI/ADR-RES, 1.68 µM (inactive). Further, the GI50 in the assay on MCF7 was 3.8 µM (inactive); with A549, 12.8 µM (inactive); in the assay with IGROV-1, 6.38 µM (inactive); in the assay on Malme-3M, 6.79 µM (inactive); in the assay on A498, 18.3 µM (inactive); in the assay on SR, 1 µM (active). Besides, the GI50 in the assay with SK-MEL-2 is 3.74 µM (inactive); in the assay with UACC-62, 2.55 µM (inactive); in the assay on COLO 205 it was 12.4 µM (inactive); in the assay with HCT-15 it was 1.25 µM; in the assay with SW-620 it was 3.54 µM (inactive); with DU-145 it was 2.33 µM (inactive). Moreover, the GI50 in the assay with CCRF-CEM was 0.506 µM (active).
Turning to `COc1cc(C(=O)n2c3ccc(Br)cc3c3nc4ccccc4nc32)cc(OC)c1OC`, the GI50 in the assay with HCC 2998, in the assay on SK-MEL-28, with SN12C, with HOP-62, with UO-31 and in the assay on HL-60 was > 100 µM (inactive) throughout. Further, the GI50 was > 100 µM (inactive) in the assay with NCI/ADR-RES; > 100 µM (inactive) in the assay on MCF7; > 100 µM (inactive) with IGROV-1; > 100 µM (inactive) in the assay on Malme-3M; > 100 µM (inactive) in the assay with SR; 62.8 µM (inactive) in the assay with SK-MEL-2. Besides, the GI50 with UACC-62 is 42.6 µM (inactive); in the assay on COLO 205, > 100 µM (inactive); with HCT-15 it was over 100 µM; with SW-620, > 100 µM (inactive); with DU-145, > 100 µM (inactive); in the assay with CCRF-CEM, > 100 µM (inactive).
As for `NCCSCCC(=O)O`, the GI50 was 28.6 µM (inactive) in the assay with HCC 2998; 37.9 µM (inactive) in the assay with SK-MEL-28; > 43.1 µM (inactive) in the assay on SN12C; > 68.5 µM (inactive) with HOP-62; > 100 µM (inactive) in the assay on UO-31; > 69.8 µM (inactive) with NCI/ADR-RES. Also, the GI50 was > 57.1 µM (inactive) in the assay on MCF7; > 69.2 µM (inactive) with A549; > 100 µM (inactive) in the assay with IGROV-1; > 100 µM (inactive) in the assay with Malme-3M; > 68.7 µM (inactive) in the assay with A498; 14.4 µM (inactive) in the assay on SR. In addition, the GI50 with SK-MEL-2 was > 83.8 µM (inactive); in the assay with UACC-62, > 45.4 µM (inactive); with COLO 205 it was 30.4 µM (inactive); with HCT-15, over 59 µM; in the assay with SW-620 it was 19.7 µM (inactive); with DU-145, > 52 µM (inactive). Further, in the assay with CCRF-CEM, the GI50 was 23 µM (inactive).
